The record followed here is US6620828B2, “Thiazole compounds and pharmaceutical compositions for inhibiting protein kinases and methods for their use” (Agouron Pharmaceuticals, Inc., priority 1999, dated 2003).

Read-outs that look alike come from different tables or passages of the source.

Assay [1] addresses T1, CDK4/Cyclin D3 complex (Homo sapiens, UniProt P11802).
T1 construct: made in house; host or cells: insect cells co-infected with baculovirus vectors
Kind of assay: CDK4/Cyclin D assay. It counts as biochemical. The note with it: Table 2; for inhibition at 100 µM: at 100 (printed 100 or 100 μM). Summed up:
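Insect-cell-expressed CDK4/cyclin D3 (50 nM) phosphorylating His-tagged Rb fragment (residues 386-928) with 25 μM [^32P]ATP in HEPES pH 7.4, MgCl2, 2% DMSO; 20 min at 30 °C, EDTA stop. Filter-captured 32P by phosphorimager; apparent Ki from competitive or tight-binding inhibition fits.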

Assay [2] has as its target T2, phosphorylated VEGF-R2Δ50 (Homo sapiens, UniProt P35968, DEL940-989/E990V).
T2 construct: VEGF-R2Δ50 contains residues 806-939 and 990-1171; made in house; host or cells: baculovirus/insect cells
Kind of assay: VEGF-R2 ELISA assay. Type of assay: biochemical. The note with it: for FLVK-P % inhibition @ 300*: at 300 (head μM); for Ki: * determined with ELISA assay, read-out: FLVK-P Ki. The text has this: VEGF-R2 Construct for Assay: This construct determines the ability of a test compound to inhibit tyrosine kinase activity. A construct (VEGF-R2Δ50) of the cytosolic domain of human vascular endothelial growth factor receptor 2 (VEGF-R2) lacking the 50 central residues of the 68 residues of the kinase insert domain was expressed in a baculovirus/insect cell system. Of the 1356 residues of full-length VEGF-R2, VEGF-R2Δ50 contains residues 806-939 and 990-1171, and also one point mutation (E990V) within the kinase insert domain relative to wild-type VEGF-R2. Autophosphorylation of the purified construct was performed by incubation of the enzyme at a concentration of 4 μM in the presence of 3 mM ATP and 40 mM MgCl2 in 100 mM Hepes, pH 7.5, containing 5% glycerol and 5 mM DTT, at 4° C. for 2 h. […] See Parast et al., Biochemistry, 37, 16788-16801 (1998).
Formation of phosphogastrin was monitored using biotinylated gastrin peptide (1-17) as substrate. Biotinylated phosphogastrin was immobilized using streptavidin coated 96-well microtiter plates followed by detection using anti-phosphotyrosine-antibody conjugated to horseradish peroxidase. The activity of horseradish peroxidase was monitored using 2,2′-azino-di-[3-ethylbenzathiazoline sulfonate(6)]diammonium salt (ABTS). Typical assay solutions contained: 2 μM biotinylated gastrin peptide; 5 mM DTT; 20 μM ATP; 26 mM MgCl2; and 2 mM MnCl2 in 200 mM Hepes, pH 7.5. The assay was initiated with 0.8 nM of phosphorylated VEGF-R2Δ50. Horseradish peroxidase activity was assayed using ABTS, 10 mM. The horseradish peroxidase reaction was quenched by addition of acid (H2SO4), followed by absorbance reading at 405 nm. Ki values were determined by measuring enzyme activity in the presence of varying concentrations of test compounds. The data were analyzed using Enzyme Kinetic and Kaleidagraph software.
In general terms: An ELISA detects its analyte on a solid surface through an enzyme-linked reagent.

In assay [3] the target is CDK2/Cyclin A complex (Homo sapiens, UniProt P24941). Kind of assay: CDK2/Cyclin A assay. The note with it: Table 2. It counts as biochemical. Put shortly:
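Radiometric assay: 150 nM CDK2/cyclin A (insect-cell CDK2, truncated cyclin A) phosphorylates His-tagged Rb fragment (residues 386-928) with 25 μM ATP plus [32P]ATP, pH 7.4 HEPES, 2% DMSO, 30 °C for 20 min. Filter-captured product counted by phosphorimager; apparent Ki from competitive or tight-binding inhibition fits.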

The test system of assay [4] is lung cancer cells (line MV522). Kind of assay: Cancer cell proliferation (MV522) assay. It counts as cell-based. The note with it: MV522, Table 1.
Assay [5] relates to human umbilical vein endothelial cells (HUVEC). Kind of assay: HUVEC proliferation assay. Type of assay: cell-based. The following applies: Homo sapiens, HUVEC, Table 1. Summed up: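 Readout was MTT dye reduction (A595) after 72 h of stimulation with VEGF at 6 ng/ml final. Compound, in 0.1% DMSO final, was added 1 h before VEGF to HUVEC starved 24 h in 1% FBS. % inhibition was scaled between VEGF-alone and unstimulated wells; IC50 was fitted from triplicate dose curves.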

T2 sequence (P35968 with tags, fused parts or gaps DEL940-989/E990V limits assumed): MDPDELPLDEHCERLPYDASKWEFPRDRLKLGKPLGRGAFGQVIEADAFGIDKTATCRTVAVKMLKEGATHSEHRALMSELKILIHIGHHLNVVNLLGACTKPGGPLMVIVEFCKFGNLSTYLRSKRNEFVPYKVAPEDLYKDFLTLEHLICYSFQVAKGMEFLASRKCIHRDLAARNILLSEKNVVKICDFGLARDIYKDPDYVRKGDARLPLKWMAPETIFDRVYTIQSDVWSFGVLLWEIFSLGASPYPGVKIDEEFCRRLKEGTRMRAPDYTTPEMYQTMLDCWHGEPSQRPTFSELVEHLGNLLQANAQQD
T1 sequence (P11802 whole entry): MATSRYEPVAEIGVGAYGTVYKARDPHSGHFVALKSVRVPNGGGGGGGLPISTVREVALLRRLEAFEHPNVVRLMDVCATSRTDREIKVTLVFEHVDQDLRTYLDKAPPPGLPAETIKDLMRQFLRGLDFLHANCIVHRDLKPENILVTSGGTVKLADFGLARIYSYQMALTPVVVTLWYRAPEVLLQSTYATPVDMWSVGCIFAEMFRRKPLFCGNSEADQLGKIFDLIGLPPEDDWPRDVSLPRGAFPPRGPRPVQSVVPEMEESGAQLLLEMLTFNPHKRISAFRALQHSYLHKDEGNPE
T1 sequence (P30281 whole entry partner): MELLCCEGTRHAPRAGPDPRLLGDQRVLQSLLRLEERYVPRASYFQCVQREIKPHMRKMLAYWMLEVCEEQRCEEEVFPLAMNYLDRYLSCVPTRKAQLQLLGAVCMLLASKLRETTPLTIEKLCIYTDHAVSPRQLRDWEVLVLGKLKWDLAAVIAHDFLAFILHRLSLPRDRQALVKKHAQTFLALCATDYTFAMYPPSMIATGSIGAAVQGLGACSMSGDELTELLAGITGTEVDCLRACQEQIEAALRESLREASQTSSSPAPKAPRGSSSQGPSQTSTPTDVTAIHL

As usually defined, the inhibition is the drop in the measured response relative to a control, in per cent. Take `COc1cc(Nc2nc(N)c(C3=NC(CC(C)C)CO3)s2)cc(OC)c1OC` (stereo not drawn) [I(3), S-5-(4-Isobutyl-4,5-dihydro-oxazol-2-yl)-N^2-(3,4,5-trimethoxyl-phenyl)-thiazole-2,4-diamine]: the inhibition at 100 µM in assay [1] was less than 0%. Besides, in assay [2] (Table 2, ELISA assay), the “FLVK-P % inhibition @ 300*” value stood at 40% @. One may read the Ki as the equilibrium dissociation constant of an inhibitor or competing ligand from its target. Consider `COc1cc(Nc2nc(N)c(-c3ccccn3)s2)cc(OC)c1OC` [G(1), 5-Pyridin-2-yl-N^2-(3,4,5-trimethoxy-phenyl)-thiazole-2,4-diamine], for which the Ki in assay [1] amounted to 50 µM; in assay [2] (Table 2), 57 µM. As for `Nc1nc(Nc2ccc(S(N)(=O)=O)cc2)sc1-c1nc(-c2ccc(O)cc2)cs1` [A(8), 4-[4′-Amino-4-(4-hydroxy-phenyl)-[2,5′]bithiazolyl-2′-ylamino]-benzenesulfonamide], the Ki in assay [1] is 0.42 µM; in assay [3], 0.8 µM; in assay [2] (Table 2), 0.058 µM. On the same counts, the results for `CN(C)c1ccc(Nc2nc(N)c(-c3nc(O)c(-c4ccccc4O)s3)s2)cc1` [H(3), 4′-Amino-2′-(4-dimethylamino-phenylamino)-5-(2-hydroxy-phenyl)-[2,5′]bithiazoly-4-ol] are 1.7 µM, 8.8 µM and 6.1 µM. On to `Nc1nc(Nc2ccccc2)sc1-c1ccccn1` [G(2), N^2-Phenyl-5-pyridin-2-yl-thiazole-2,4-diamine], for which the Ki in assay [1] stood at 5.7 µM. Further, the “FLVK-P % inhibition @ 100*” value in assay [2] (Table 2, ELISA assay, at 100 (head μM)) turned out to be 18% @. As to `COc1cc(Nc2nc(N)c(-c3noc(-c4ccsc4)n3)s2)cc(OC)c1OC` [G(7), 5-(5-Thiophen-3-yl-[1,2,4]oxadiazol-3-yl)-N^2-(3,4,5-trimethoxy-phenyl)-thiazole-2,4-diamine], in assay [3] (at 10 (head μM)), the “CDK2 % inhibition @ 10” value turned out to be 21% @. For the same molecule, the Ki in assay [2] (Table 2) came out at 1.6 µM. One may read the IC50 as the concentration needed to halve the response being measured. A lower IC50 goes with higher potency. `COc1cc(Nc2nc(N)c(-c3nc(-c4cccc(NC(=O)c5cc6ccccc6o5)c4)cs3)s2)cc(OC)c1OC` [D(21), Benzofuran-2-carboxylic acid {3-[4′-amino-2′-(3,4,5-trimethoxy-phenylamino)-[2,5′]bithiazolyl-4-yl]-phenyl}-amide]: the Ki in assay [2] (Table 1) came to 0.06 µM. The IC50 in assay [4] was greater than 10 µM; in assay [5], 0.2 µM. For the molecule `COc1cc(Nc2nc(N)c(-c3nc(-c4cccc(NC(=O)COc5ccccc5)c4)cs3)s2)cc(OC)c1OC` [D(15), N-{3-[4′-Amino-2′-(3,4,5-trimethoxy-phenylamino)-[2,5′]bithiazolyl-4-yl]-phenyl}-2-phenoxy-acetamide], the Ki in assay [2] (Table 1) turned out to be 0.24 µM. As for `COc1cc(Nc2nc(N)c(C3=NC(C(C)C)CO3)s2)cc(OC)c1OC` (racemic) [I(17), (R/S)-5-(4-Isopropyl-4,5-dihydro-oxazol-2-yl)-N^2-(3,4,5-trimethoxy-phenyl)-thiazole-2,4-diamine], in assay [2] (Table 2), the inhibitory constant (Ki) was found to be 35 µM. For the molecule `COc1cc(Nc2nc(N)c(C3=NC(C)CO3)s2)cc(OC)c1OC` (racemic) [I(15), (R/S)-5-(4-Methyl-4,5-dihydro-oxazol-2-yl)-N^2-(3,4,5-trimethoxy-phenyl)-thiazole-2,4-diamine], the Ki in assay [2] (Table 2) was found to be 73 µM. As to `CN(C)c1ccc(Nc2nc(N)c(-c3nn[nH]n3)s2)cc1` [J(2), N-(4-Dimethylamino-phenyl)-5-(2H-tetrazol-5-yl)-thiazole-2,4-diamine], the inhibition at 100 µM in assay [1] came out at 29%. Besides, in assay [2] (Table 2), the Ki amounted to 53 µM.

As for `COc1cc(Nc2nc(N)c(C3=NC(c4ccccc4Br)CO3)s2)cc(OC)c1OC` (racemic) [I(13), (R/S)-5-[4-(2-Bromo-phenyl)-4,5-dihydro-oxazol-2-yl]-N^2-(3,4,5-trimethoxy-phenyl)-thiazole-2,4-diamine], in assay [2] (Table 2), the inhibitory constant (Ki) came to 1.25 µM.

For the molecule `COc1cc(Nc2nc(N)c(C3=N[C@H](c4ccccc4)CO3)s2)cc(OC)c1OC` [I(7), R-5-(4-Phenyl-4,5-dihydro-oxazol-2-yl)-N^2-(3,4,5-trimethoxyl-phenyl)-thiazole-2,4-diamine], the Ki in assay [2] (Table 2) was 5.2 µM.

As to `Nc1nc(Nc2ccc(S(N)(=O)=O)cc2)sc1C1=NC(c2ccccc2)CO1` (stereo not drawn) [I(5), S-4-[4-Amino-5-(4-phenyl-4,5-dihydro-oxazol-2-yl)-thiazol-2-ylamino]-benzenesulfonamide], the inhibition at 100 µM in assay [1] is 47%. For the same molecule, the Ki in assay [2] (Table 2) turned out to be 0.77 µM. In the case of `Nc1nc(Nc2ccc(S(N)(=O)=O)cc2)sc1-c1nc(O)cs1` [H(1), 4-(4′-Amino-4-hydroxy-[2,5′]bithiazolyl-2′-ylamino)-benzenesulfonamide], the values for the Ki in assay [1], in assay [3] and in assay [2] (Table 2) were 3.8 µM, 0.65 µM and 3.6 µM, respectively. As to `COc1cc(Nc2nc(N)c(-c3nc(-c4cccc(NC(=O)CC(C)C)c4)cs3)s2)cc(OC)c1OC` [D(9)], the Ki in assay [2] (Table 1) was 0.047 µM. Still for that read-out and setting: the figure for `COc1cc(Nc2nc(N)c(-c3nc(-c4cccc(NC(=O)Cc5ccccc5)c4)cs3)s2)cc(OC)c1OC` [D(5), N-{3-[4′-Amino-2′-(3,4,5-trimethoxy-phenylamino)-[2,5′]bithiazolyl-4-yl]-phenyl}-2-phenyl-acetamide] is 0.063 µM. With `COc1cc(Nc2nc(N)c(C3=NC(c4cccc(Br)c4)CO3)s2)cc(OC)c1OC` (racemic) [I(14), (R/S)-5-[4-(3-Bromo-phenyl)-4,5-dihydro-oxazol-2-yl]-N^2-(3,4,5-trimethoxy-phenyl)-thiazole-2,4-diamine], the Ki in assay [2] (Table 2) was 1.17 µM.

Take `COc1cc(Nc2nc(N)c(C3=N[C@H](C)[C@H](c4ccccc4)O3)s2)cc(OC)c1OC` [I(18), 5-(4(R)-Methyl-5(S)-phenyl-4,5-dihydro-oxazol-2-yl)-N^2-(3,4,5-trimethoxy-phenyl)-thiazole-2,4-diamine]: the Ki in assay [2] (Table 2) worked out at 2.7 µM. For the molecule `CNC(=O)Nc1cccc(-c2csc(-c3sc(Nc4cc(OC)c(OC)c(OC)c4)nc3N)n2)c1` [D(7), 1-{3-[4′-Amino-2′-(3,4,5-trimethoxy-phenylamino)-[2,5′]bithiazolyl-4-yl]-phenyl}-3-methyl-urea], in assay [2] (Table 1), the Ki came to 0.12 µM. On to `Nc1nc(Nc2ccc3c(c2)OCCO3)sc1-c1ccccn1` [G(3), N^2-(2,3-Dihydro-benzo[1,4]dioxin-6-yl)-5-pyridin-2-yl-thiazole-2,4-diamine], for which, in assay [1], the Ki came out at 6.2 µM. Also, the “FLVK-P % inhibition @ 20*” value in assay [2] (Table 2, ELISA assay, at 20 (head μM)) came to 13% @. Regarding `COc1ccc(Nc2nc(N)c(-c3ccccn3)s2)cc1OC` [G(4), N^2-(3,4-Dimethoxy-phenyl)-5-pyridin-2-yl-thiazole-2,4-diamine], the inhibition constant (Ki) in assay [1] was found to be 11.4 µM. Moreover, the “FLVK-P % inhibition @ 300*” value in assay [2] (Table 2, ELISA assay) is reported as 42% @. On to `COc1cc(Nc2nc(N)c(-c3nn[nH]n3)s2)cc(OC)c1OC` [J(1), 5-(2H-Tetrazol-5-yl-)-N-(3,4,5-trimethoxyl)-thiazole-2,4-diamine], for which the inhibition at 100 µM in assay [1] is less than 0%. For the same molecule, the Ki in assay [2] (Table 2) is 64 µM.

Turning to `COc1cc(Nc2nc(N)c(-c3nc(-c4cccc(NC(=O)Oc5cccc6ccccc56)c4)cs3)s2)cc(OC)c1OC` [D(22), {3-[4′-Amino-2′-(3,4,5-trimethoxy-phenylamino)-[2,5′]bithiazolyl-4-yl]-phenyl}-carbamic acid naphthalen-1-yl ester], the Ki in assay [2] (Table 1) stood at 0.089 µM. For `CCC(=O)Nc1cccc(-c2csc(-c3sc(Nc4cc(OC)c(OC)c(OC)c4)nc3N)n2)c1` [D(8), N-{3-[4′-Amino-2′-(3,4,5-trimethoxy-phenylamino)-[2,5′]bithiazolyl-4-yl]-phenyl}-propionamide], in assay [2] (Table 1), the Ki is 0.029 µM.
